{"source": "patent US20190209509A1", "about": "“Hepatoprotective potential of Calebin A” (priority 2018, published 2019)", "key": {"HepG2 cells [1]": {"tested_on": "HepG2 cells", "test": "Protection from alcohol induced toxicity, Sulphorhodamine B assay", "assay_type": "cell-based, Human", "details": "alcohol 1000 mM, 72 hours", "description": "(§1) Human HepG2 cells (procured from NCCS, Pune) were cultured in Dulbecco's Modified Eagle Medium (DMEM) supplemented with 10% fetal bovine serum (FBS), 40 μgml^−1 gentamycin at 37° C. in an atmosphere of 5% CO2. When the cells reached 80-90% confluence, they were trypsinized and plated at 5000 cells per well in a 96-well microplate. After 24 hours of seeding, alcohol at a concentration of 1000 mM was added along with different non cytotoxic concentrations of Calebin. Sulphorhodamine B assay was performed after 72 hours of treatment to determine the number of viable cells and percentage protection was calculated (FIG. 1)."}, "adipocytes": {"tested_on": "adipocytes", "test": "Glucose uptake assay in adipocytes", "assay_type": "cell-based", "details": "concentration printed as 3004, versus Metformin 200 μM"}, "[2]": {"tested_on": "C2C12 myotubes (muscle cells)", "test": "Glucose uptake assay (2-NBDG, flow cytometry) in muscle cells", "assay_type": "cell-based", "details": "concentration printed as 3004, versus Metformin 200 μM", "description": "The skeletal muscle cell line C2C12 myoblasts (procured from ATCC) were maintained in DMEM supplemented with 10% Fetal Bovine Serum at 37° C. with 5% CO2. Twenty thousand cells per well were seeded in a 24 well plate. When the cells reached 80-90% confluence, differentiation was induced by replacing the growth medium with DMEM containing 1% horse serum. Experiments were performed in completely differentiated C2C12 myotubes after 4-5 days in differentiation medium. Cells were then treated with 0.5% BSA in low glucose media for 16 hours and washed with cold Krebs-Ringer phosphate buffer without glucose. Cells were then treated with different non cytotoxic concentrations of samples in low glucose DMEM media with or without insulin at a concentration of 0.1 μM for 30 minutes at 37° C. Cells were then washed with cold PBS and stained with 5 μM of a fluorescent D-glucose analog 2-[N-(7-nitrobenz-2-oxa-1,3-diazol-4-yl) amino]-2-deoxy-D-glucose (2-NBDG) for 15 minutes in dark followed by flow cytometric detection of fluorescence produced by the cells (FIG. 3)"}, "HepG2 cells [3]": {"tested_on": "HepG2 cells", "test": "Protection from acetaminophen (paracetamol) induced toxicity, Sulphorhodamine B assay", "assay_type": "cell-based, Human", "details": "6.25 μM, acetaminophen 4 mM, 72 hours", "description": "as §1, with “acetaminophen” for “alcohol”, “4” for “1000”, “2).” for “1).”"}}, "data": [{"smiles": "COc1cc(/C=C/C(=O)COC(=O)/C=C/c2ccc(O)c(OC)c2)ccc1O", "note": "[Calebin A]", "values": [{"measurement": "percentage protection from alcohol induced toxicity", "setting": "HepG2 cells [1]; 6.25 μM", "result": "about 14%"}, {"measurement": "percentage protection from alcohol induced toxicity", "setting": "HepG2 cells [1]; 12.5 μM", "result": 30, "unit": "%"}, {"measurement": "percentage protection from alcohol induced toxicity", "setting": "HepG2 cells [1]; progressively higher concentration, printed 6.25 μM", "result": 23, "unit": "%"}, {"measurement": "increase in glucose uptake", "setting": "adipocytes", "result": "almost as effective as Metformin"}, {"measurement": "increase in glucose uptake", "setting": "[2]", "result": "almost as effective as Metformin"}, {"measurement": "percentage protection against acetaminophen induced toxicity", "setting": "HepG2 cells [3]", "result": "about 15%"}]}]}
